Results as given in ChEMBL document CHEMBL1130857, “Synthesis and biological activity of lactones en route to Altohyrtin A” (1998).
In brackets after ≈: the same amount, converted by molar mass. Activity calls are given as the source filed them. The rule behind the calls is not given here.

Legend:
[1] = Antitumor activity was evaluated by the total growth inhibition of Thyroid ca KAT-4 cells; Active; type: functional; details: Homo sapiens, KAT-4, read-out: TGI50
[2] = Antitumor activity was evaluated by the lethal concentration of Pancreas-a BXPC-3 cells; Active; type: functional; details: Homo sapiens, read-out: LC50 (the source's name)
[3] = Antitumor activity was evaluated by the lethal concentration of Thyroid ca KAT-4 cells; Active; type: functional; details: Homo sapiens, read-out: LC50 (the source's name)
[4] = Antitumor activity was evaluated by the growth inhibition of Pancreas-a BXPC-3 cells; Active; type: functional; details: Homo sapiens
[5] = Antitumor activity was evaluated by the total growth inhibition of Pancreas-a BXPC-3 cells; Active; type: functional; details: Homo sapiens, BXPC-3, read-out: TGI50
[6] = Antitumor activity was evaluated by the lethal concentration of Prostate DU-145 cells; Active; type: functional; details: Homo sapiens, read-out: LC50 (the source's name)
[7] = Antitumor activity was evaluated by the growth inhibition of Thyroid ca SW 1736 cells; Active; type: functional; details: Homo sapiens
Homo sapiens [8] = species on record: Homo sapiens; assay: Antitumor activity was evaluated by the growth inhibition of Pharynx-sq FADU cells; Active; type: functional
[9] = Antitumor activity was evaluated by the total growth inhibition of Prostate DU-145 cells; Active; type: functional; details: Homo sapiens, DU-145, read-out: TGI50
[10] = Antitumor activity was evaluated by the growth inhibition of Thyroid ca KAT-4 cells; Active; type: functional; details: Homo sapiens
Homo sapiens [11] = species on record: Homo sapiens; assay: Antitumor activity was evaluated by the lethal concentration of Pharynx-sq FADU cells; Active; type: functional; details: read-out: LC50 (the source's name)
[12] = Antitumor activity was evaluated by the total growth inhibition of Lung-NSC NCI-H460 cells; Active; type: functional; details: Homo sapiens, NCI-H460, read-out: TGI50
[13] = Antitumor activity was evaluated by the growth inhibition of Lung-NSC NCI-H460 cells; Active; type: functional; details: Homo sapiens
[14] = Antitumor activity was evaluated by the total growth inhibition of Thyroid ca SW 1736 cells; Active; type: functional; details: Homo sapiens, SW-1736, read-out: TGI50
[15] = Antitumor activity was evaluated by the growth inhibition of Prostate DU-145 cells; Active; type: functional; details: Homo sapiens
[16] = Antitumor activity was evaluated by the lethal concentration of Lung-NSC NCI-H460 cells; Active; type: functional; details: Homo sapiens, read-out: LC50 (the source's name)
[17] = Antitumor activity was evaluated by the lethal concentration of Thyroid ca SW 1736 cells; Active; type: functional; details: Homo sapiens, read-out: LC50 (the source's name)
Homo sapiens [18] = species on record: Homo sapiens; assay: Antitumor activity was evaluated by the total growth inhibition of Pharynx-sq FADU cells; Active; type: functional; details: read-out: TGI50
BXPC-3 = assay: Antitumor activity against Pancreas-a BXPC-3 cells was evaluated; No biological activity; type: functional, cell-based; details: Homo sapiens
DU-145 = assay: Antitumor activity against Prostate DU-145 cells was evaluated; No biological activity; type: functional, cell-based; details: Homo sapiens
KAT-4 = assay: Antitumor activity against Thyroid ca KAT-4 cells was evaluated; No biological activity; type: functional, cell-based; details: Homo sapiens
SW 1736 = assay: Antitumor activity against Thyroid ca SW 1736 cells was evaluated; No biological activity; type: functional, cell-based; details: Homo sapiens
NCI-H460 = assay: Antitumor activity against Lung-NSC NCI-H460 cells was evaluated; No biological activity; type: functional, cell-based; details: Homo sapiens
Homo sapiens [19] = species on record: Homo sapiens; assay: Antitumor activity against Pharynx-sq FADU cells was evaluated; No biological activity; type: functional

## C[C@@H]1[C@@H](O)[C@H](O)C(=O)O[C@H]1[C@H]1COC(C)(C)O1
[1]
  GI50: > 10 µg/mL
[2]
  CC50: > 10000 µg/mL
[3]
  CC50: > 10000 µg/mL
[4]
  GI50: > 10 µg/mL
[5]
  GI50: > 10 µg/mL
[6]
  CC50: > 10000 µg/mL
[7]
  GI50: 8.5 µg/mL (≈ 34.5 µM)
Homo sapiens [8]
  GI50: 3.7 µg/mL (≈ 15 µM)
[9]
  GI50: > 10 µg/mL
[10]
  GI50: > 10 µg/mL
Homo sapiens [11]
  CC50: > 10000 µg/mL
[12]
  GI50: > 10 µg/mL
[13]
  GI50: 2.9 µg/mL (≈ 11.8 µM)
[14]
  GI50: > 10 µg/mL
[15]
  GI50: 2.7 µg/mL (≈ 11 µM)
[16]
  CC50: > 10000 µg/mL
[17]
  CC50: > 10000 µg/mL
Homo sapiens [18]
  GI50: > 10 µg/mL

## C[C@H]1C(COCc2ccccc2)OC(=O)[C@@H](O)[C@@H]1O (some centres undefined)
BXPC-3
  Activity: inactive
DU-145
  Activity: inactive
KAT-4
  Activity: inactive
SW 1736
  Activity: inactive
NCI-H460
  Activity: inactive
Homo sapiens [19]
  Activity: inactive
